These results are taken from patent US20110129423A1, “ANTICANCER COMPOUNDS AND SCREENING METHOD” (priority 2009, published 2011).

Where “and” joins values, the source holds several entries; their conditions need not be identical. Identical values can stand only once.

One data set relates to steroidogenesis in dogs. The experiment in a line: Effects on steroidogenesis in dogs in vivo (plasma T, A4, DHEA by LC-MS/MS). The following applies: for Testosterone Concentrations: male dogs. Details: species or system dog. Here is the method: (§1) Effects of the test compound 17α-ethynylandrostane-3α,17β-[…] on steroidogenesis in dogs in vivo. Samples were collected from male dogs (5/group) treated with 0, 20, 60 or 200 mg/kg of 17α-ethynylandrostane-3α,17β-diol before dosing on days 1, 14, and 28. The animals were dosed daily for 28 days. The samples were analyzed for testosterone (T), androstendione (A4), and dehydroepiandrosterone (DHEA). Day 1 and day 28 vehicle and 60 mg/kg samples were assayed for luteinizing hormone. The compound was administered by oral administration of a 20 mg/mL 17α-ethynylandrostane-3α,17β-diol solution made of 40% 2-hydroxypropyl-β-cyclodextrin in water.
(§2) T, A4 and DHEA assay. Plasma samples were processed by liquid/liquid extraction using MTBE (methyl-t-butyl ether). The organic portions containing the free steroids were evaporated and the dried extracts were incubated at 60° C. with a hydroxylamine hydrochloride solution. The resulting steroid-oxime derivatives were extracted with MTBE. The organic portions containing the steroid-oxime derivatives were evaporated to dryness, reconstituted in 80/20 water/acetonitrile, and analyzed on a Waters Xbridge™ Phenyl column by reversed-phase high-performance liquid chromatography (Agilent, Palo Alto, Calif. and Leap Technologies, Carrboro, N.C.) coupled with a tandem quadrupole mass spectrometer (Waters, Beverly, Mass.). Calibration curves prepared in water and QC samples prepared in native plasma for T (4-androstene-3-one-17β-ol), A4 (4-androstene-3,17-dione), and DHEA were analyzed in parallel with the samples. Sample responses were acquired and concentrations were determined based on the calibration curve using Masslynx™ analysis software (Waters, Beverly, Mass.). Determination of QC statistics was performed by subtracting the endogenous concentration determined in native plasma from the total concentration found in the QC sample.
The quantifiable range of detection for T was 10.0 to 20000.0 pg/mL in rat (example 3) and dog (this example) samples. The quantifiable range of detection for A4 was 10.0 to 20000.0 pg/mL in rats and 20.0 to 20000.0 pg/mL in dogs. The quantifiable range of detection for DHEA was 50.0 to 200.0 pg/mL in both species. Values below the detection limit were identified as such.

In data set [1] the test system is systemic (serum) levels of testosterone, estradiol, estrone and DHEA. The experiment in a line: Systemic steroid hormone levels in rats dosed daily for 14 days. The data set is classed as in vivo, rat. Conditions: 100 mg/kg daily, by day 7. How it is done:
Plasma samples were processed by liquid/liquid extraction using MTBE. The organic portions containing the analytes were evaporated and dried extracts were incubated at 60° C. with a dansyl chloride solution. The resulting steroid derivatives were analyzed on a Waters Xbridge™ Phenyl column by reversed-phase high-performance liquid chromatography (Agilent, Palo Alto, Calif. and Leap Technologies, Carrboro, N.C.) coupled with a tandem quadrupole mass spectrometer (Waters, Beverly, Mass.). Calibration curves for standards and QC samples for […] (Estradiol, E2) and Estrone (E1) were analyzed in parallel with the samples. Sample responses were acquired and concentrations were determined based on the calibration using Masslynx™ analysis software (Waters, Beverly, Mass.). Determination of QC statistics was performed by subtracting the endogenous concentration determined in native plasma from the total concentration found in the QC sample. No PK calculations were performed on this study. The quantifiable range of detection for E2 was 5.0 to 200.0 pg/mL. The quantifiable range of detection for E1 was 10.0 to 200.0 pg/mL. Values below the detection limit were identified as such and reported.
as §2
The quantifiable range of detection for T was 10.0 to 20000.0 pg/mL in rat (example 3) and dog (this example) samples. The quantifiable range of detection for A4 was 10.0 to 20000.0 pg/mL in rats and 20.0 to 20000.0 pg/mL in dogs. The quantifiable range of detection for DHEA was 50.0 to 200.0 pg/mL in both species. […]

Data set [2] in a line: Toxicity observation in the 28-day dog study. Format: in vivo. The following applies: dogs, 20, 60 or 200 mg/kg oral daily for 28 days. How it is done:
as §1

For another data set, the system named is ACTH, LH, and FSH. As to the kind of experiment: Peptide hormone assays (ELISA) in rat plasma. The data set is classed as in vivo. The following applies: rats, 100 mg/kg daily for 14 days. Here is the method: Peptide Hormone Assays. ELISA kits for the quantification of ACTH, LH, and FSH in rat plasma were obtained from USCN Life, Wuhan, China. All other reagents were obtained from Sigma Chemical Co, St. Louis, Mo. ELISA results were measured on an ELx800 plate reader (Bio-Tek, Winooski, Vt.). Samples were assayed for ACTH, LH, and FSH concentration by means of an ELISA assay kit according to the manufacturer's instructions. For the rat samples, although 100 μL of undiluted plasma were required for each assay, […], 100 μL (LH), or 30 μL (FSH) were used in order to obtain results in the quantifiable range of the assay. Samples from Day 14 were assayed in duplicate; samples from Day 0 and Day 7 were assayed singly due to the small sample volume available. Concentrations were calculated from an eight-point standard curve. Thirty-five μL of dog plasma was used for the LH assay.
The compound 17α-ethynylandrostane-3α,17β-diol (100 mg/kg) was administered to rats (n=5) daily for 14 days. The compound was a 20 mg/mL solution made of […] 2-hydroxypropyl-β-cyclodextrin in water. Vehicle lacking the compound was administered to control animals (n=5). By day 7 in the dosing period, systemic (serum) levels of testosterone, estradiol, estrone and DHEA had fallen by over 99% to essentially undetectable levels in the treated animals. Changes in LH, FSH and ACTH were not observed.

The mark [3] stands for this setting: dogs, end of 28 days of daily oral dosing, dose group not specified.

`C#C[C@]1(O)CC[C@H]2[C@@H]3CCC4C[C@H](O)CC[C@]4(C)[C@H]3CC[C@@]21C` (stereo partly drawn) [17α-ethynylandrostane-3α,17β-diol]: the “decrease of A4 (androstendione) level compared to vehicle control” value in the data set with steroidogenesis in dogs (setting [3]) is “about 99%”. Also, the “decrease of DHEA level” value in the data set on steroidogenesis in dogs (setting [3]) is recorded as “about 90%”. Further, in the data set on steroidogenesis in dogs (setting [3]), the “decrease of T (testosterone) level compared to vehicle control” value is “about 99%”. In addition, the “Testosterone Concentrations” value with steroidogenesis in dogs (20 mg/kg oral daily, day 1 sample before dosing (baseline), individual animals A111M-A115M, 20 mg/kg) was 1747.2 pg/mL and 1677.0 pg/mL and 668.6 pg/mL and 771.4 pg/mL and 2450.6 pg/mL; in the data set on steroidogenesis in dogs (20 mg/kg oral daily, day 14, individual animals A111M-A115M, 20 mg/kg) it was 67.8 pg/mL and 51.1 pg/mL and 344.9 pg/mL and 90.1 pg/mL and 94.4 pg/mL; with steroidogenesis in dogs (20 mg/kg oral daily, day 28, individual animals A111M-A115M, BQL = below the limit of quantitation (lower limit 10.0 pg/mL), 20 mg/kg), 19.3 pg/mL and 60.8 pg/mL and 143.8 pg/mL and 173.0 pg/mL and BQL; in the data set with steroidogenesis in dogs (60 mg/kg oral daily, day 1 sample before dosing (baseline), individual animals A121M-A125M, 60 mg/kg), 46.9 pg/mL and 711.2 pg/mL and 723.8 pg/mL and 1371.3 pg/mL and 1659.6 pg/mL; in the data set on steroidogenesis in dogs (60 mg/kg oral daily, day 14, individual animals A121M-A125M, 60 mg/kg) it was 173.7 pg/mL and 38.5 pg/mL and 110.4 pg/mL and 144.1 pg/mL and 338.0 pg/mL; with steroidogenesis in dogs (60 mg/kg oral daily, day 28, individual animals A121M-A125M, BQL = below the limit of quantitation (lower limit 10.0 pg/mL), 60 mg/kg), 18.9 pg/mL and BQL (4×). For the same molecule, the “Testosterone Concentrations” value in the data set with steroidogenesis in dogs (200 mg/kg oral daily, day 1 sample before dosing (baseline), individual animals A131M-A135M, 200 mg/kg) is 503.3 pg/mL and 350.3 pg/mL and 1816.6 pg/mL and 1891.0 pg/mL; with steroidogenesis in dogs (200 mg/kg oral daily, day 14, individual animals A131M-A135M, BQL = below the limit of quantitation (lower limit 10.0 pg/mL), 200 mg/kg), “BQL (2×) and 119.5 pg/mL and 236.6 pg/mL and 18.1 pg/mL”; in the data set on steroidogenesis in dogs (200 mg/kg oral daily, day 28, individual animals A131M-A135M, BQL = below the limit of quantitation (lower limit 10.0 pg/mL), 200 mg/kg), “BQL (2×) and 11.2 pg/mL and 10.2 pg/mL”. For the same molecule, the “fall of systemic (serum) level of DHEA” value in data set [1] is on record as “over 99%”. In data set [1], the “fall of systemic (serum) level of estradiol” value is listed as “over 99%”. Further, in data set [1], the “fall of systemic (serum) level of estrone” value was “over 99%”. Further, the “fall of systemic (serum) level of testosterone” value in data set [1] is “over 99%”. In data set [2], the “toxicity in the animals” value was “Significant toxicity was not observed”. The “changes in ACTH” value with ACTH, LH, and FSH was “not observed”. The “changes in FSH” value with ACTH, LH, and FSH is “not observed”. Further, the “changes in LH” value with ACTH, LH, and FSH is “not observed”.
